Measured values: patent US12440529B2, “Topical Croton lechleri compositions and their use in the treatment of a bacterial colonization or primary or secondary bacterial infection of an underlying skin disorder” (ALPHYN BIOLOGICS, INC., priority 2020, dated 2025)

System: Enterococcus faecalis (ATCC 29212) (EFAECL)
Experiment: Agar Well Diffusion Assay (Kirby-Bauer disks), zone of inhibition
Format: cell-based
Conditions: control antibiotic K-B disk
Experimental: Isolates were subcultured the day before the Agar Well Diffusion Assay was performed. On the day of the assay, a bacterial suspension (0.08-0.12 MacFarland units) of each bacteria isolate was made in Trypticase Soy Broth (TSB), and these suspensions were used to plate a lawn of bacterial organisms on Mueller-Hinton agar or Mueller-Hinton sheep's blood agar. […] The next day, the width of the zone of growth inhibition surrounding each K-B disk was recorded (in mm). The larger the number, the greater the zone of inhibition, and the greater the inhibition of growth of the target organisms.
Therefore, all dilutions were made into DMSO and a K-B disk containing 25 uL DMSO was included in all experiments as a vehicle control.
When assessing antibiotic effects in a K-B type test, the minimum zone of inhibition for considering a positive test varies depending on the antibiotic tested with anything more than 0 mm considered positive in some cases or as much as 10 mm or more needed for others.

Row | Compound | Zone of Inhibition
1 | CC1(C)S[C@@H]2[C@H](NC(=O)[C@H](N)c3ccccc3)C(=O)N2[C@H]1C(=O)O [AMP, Ampicillin] | AMP 8 MM
2 | Gentamicin [GM] | GM 5 MM
